Source: US11311522B1 (Cavion, Inc., priority 2018, dated 2022)
Where two headings read alike, the source gives them in different places.

Experiments:
[1] = 90-day oral toxicology in Beagle dogs; conditions: Beagle, dog, in vivo, po
[2] = in vivo; conditions: rat, po
[3] = biological target: T1, Cav3.3 (Homo sapiens, UniProt Q9P0X4); test: Cav3.3 FLIPR calcium influx assay (HEK 293 cells); type: cell-based; conditions: for IC50: Cav3.3 FLIPR assay; for State dependence: hyperpolarized versus depolarized FLIPR potency
T1 construct: expressed in transfected cells; host or cells: HEK 293
T1 sequence (Q9P0X4 whole entry, species assumed): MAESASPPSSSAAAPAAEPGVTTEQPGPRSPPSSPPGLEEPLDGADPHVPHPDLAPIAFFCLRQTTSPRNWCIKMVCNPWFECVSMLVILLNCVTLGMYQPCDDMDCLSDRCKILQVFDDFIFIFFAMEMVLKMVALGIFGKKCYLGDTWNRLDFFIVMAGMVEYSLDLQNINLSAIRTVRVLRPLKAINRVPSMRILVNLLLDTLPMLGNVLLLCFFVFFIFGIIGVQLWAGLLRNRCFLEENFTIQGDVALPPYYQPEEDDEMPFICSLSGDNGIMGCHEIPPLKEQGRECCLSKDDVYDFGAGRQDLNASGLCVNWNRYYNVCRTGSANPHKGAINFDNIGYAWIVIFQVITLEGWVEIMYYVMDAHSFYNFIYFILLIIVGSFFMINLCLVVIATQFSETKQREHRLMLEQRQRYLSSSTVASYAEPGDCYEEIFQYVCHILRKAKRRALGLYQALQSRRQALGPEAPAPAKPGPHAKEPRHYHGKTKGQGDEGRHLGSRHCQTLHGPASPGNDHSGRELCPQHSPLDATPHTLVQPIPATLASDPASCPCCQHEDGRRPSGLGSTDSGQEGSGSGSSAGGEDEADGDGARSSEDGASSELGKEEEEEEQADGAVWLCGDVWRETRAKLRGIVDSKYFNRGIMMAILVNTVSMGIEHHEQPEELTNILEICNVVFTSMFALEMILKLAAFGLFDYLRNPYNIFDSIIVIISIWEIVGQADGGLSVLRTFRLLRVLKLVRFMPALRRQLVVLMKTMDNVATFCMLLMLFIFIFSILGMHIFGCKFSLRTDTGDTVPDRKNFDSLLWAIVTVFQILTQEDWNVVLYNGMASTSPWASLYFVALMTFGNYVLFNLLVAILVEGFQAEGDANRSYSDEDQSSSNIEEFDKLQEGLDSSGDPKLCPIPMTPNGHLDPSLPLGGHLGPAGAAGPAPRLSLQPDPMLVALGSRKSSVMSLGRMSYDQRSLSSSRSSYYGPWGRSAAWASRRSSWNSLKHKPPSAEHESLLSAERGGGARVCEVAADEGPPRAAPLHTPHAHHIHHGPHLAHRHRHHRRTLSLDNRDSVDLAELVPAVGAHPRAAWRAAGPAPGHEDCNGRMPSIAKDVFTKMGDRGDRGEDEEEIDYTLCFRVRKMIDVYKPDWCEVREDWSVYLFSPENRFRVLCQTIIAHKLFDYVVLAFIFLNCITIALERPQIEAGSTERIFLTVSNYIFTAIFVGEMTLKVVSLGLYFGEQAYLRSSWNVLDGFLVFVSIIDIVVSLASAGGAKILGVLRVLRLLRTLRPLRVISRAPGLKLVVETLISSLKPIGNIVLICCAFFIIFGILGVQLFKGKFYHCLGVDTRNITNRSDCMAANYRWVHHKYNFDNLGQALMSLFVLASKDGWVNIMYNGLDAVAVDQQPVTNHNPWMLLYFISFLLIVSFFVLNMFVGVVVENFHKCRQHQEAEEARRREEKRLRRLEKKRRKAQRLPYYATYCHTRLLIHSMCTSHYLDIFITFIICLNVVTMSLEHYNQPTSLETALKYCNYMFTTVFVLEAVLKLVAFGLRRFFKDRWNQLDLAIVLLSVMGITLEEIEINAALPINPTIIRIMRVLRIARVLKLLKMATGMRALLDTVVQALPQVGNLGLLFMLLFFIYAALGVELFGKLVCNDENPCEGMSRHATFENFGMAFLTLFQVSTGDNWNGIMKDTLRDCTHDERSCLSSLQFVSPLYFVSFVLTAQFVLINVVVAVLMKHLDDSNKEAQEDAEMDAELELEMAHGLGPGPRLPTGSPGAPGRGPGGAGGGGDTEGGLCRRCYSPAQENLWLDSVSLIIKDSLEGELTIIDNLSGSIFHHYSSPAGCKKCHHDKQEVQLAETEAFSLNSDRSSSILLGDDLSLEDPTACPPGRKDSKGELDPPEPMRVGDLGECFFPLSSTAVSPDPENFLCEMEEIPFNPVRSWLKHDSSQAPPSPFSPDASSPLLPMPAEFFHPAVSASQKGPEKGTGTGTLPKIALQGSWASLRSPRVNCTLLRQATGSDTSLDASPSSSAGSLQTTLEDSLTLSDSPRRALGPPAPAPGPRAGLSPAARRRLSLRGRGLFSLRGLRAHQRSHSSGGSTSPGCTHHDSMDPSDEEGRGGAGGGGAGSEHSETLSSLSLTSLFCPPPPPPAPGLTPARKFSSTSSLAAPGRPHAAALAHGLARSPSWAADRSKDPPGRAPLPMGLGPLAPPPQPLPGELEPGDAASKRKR

[4] = In vitro plasma protein binding, human; type: in vitro ADME; conditions: human plasma, read-out: Human-free fraction
[5] = T-CALM: plasma concentrations by 5-in-1 LC/MS/MS; type: in vivo, human; conditions: for Plasma concentration, mean: trough; for concentration at 4 h: human, plasma, oral, 4 hours post-dose
Description: Additionally, at Visit 4, a post-dose sample will be collected as close to 4 hours post-dose as possible, but within the window of 4-6 hours post-dose (i.e., a total of two PK samples are collected at Visit 4.)
Assay performances were satisfactory and met acceptance criteria for system performance suitability, quantitation range, calibration linearity, assay accuracy and precision, and assay recovery.

[6] = test system: WAG/Rij rats; test: WAG/Rij rat model of absence epilepsy; type: in vivo; conditions: 10 mg/kg oral
Description: Other T-type antagonists from structurally diverse series have shown similar efficacy in this model (Broicher, 2007; Blumenfeld, 2008; Broicher, 2008; Shipe, 2008; Yang, 2008; Uebele, 2009; Russo, 2010; Russo, 2011).
Data were scored with automated seizure analysis software, averaged, and normalized to enable treatment comparisons (FIG. 76)
Control animals received vehicle administrations. […] Source: Merck TTA Package Description (FIG. 79).

[7] = test system: GAERS rats; test: GAERS rat model of absence epilepsy; conditions: 100 mg/kg oral
[8] = test system: Cav3; conditions: from literature, cited from earlier work; for IC50: read-out: Cav3 potency
[9] = rodents; from literature; cited from earlier work
[10] = rodents; from literature; cited from earlier work; remark: listed apart in the source
[11] = test system: harmaline-induced tremor; conditions: dose levels up to 10 mg/kg; cited from earlier work
[12] = rodents; from literature; cited from earlier work; remark: listed apart in the source
[13] = Single-dose toxicokinetic study in dogs; type: in vivo; conditions: dog, plasma, po, 800 mg/kg
[14] = Brain penetration in male rats; type: in vivo; conditions: rat, 25 mg/kg
[15] = test system: patients with schizophrenia; test: PN004: safety; type: in vivo, human; conditions: Study PN004, subjects with schizophrenia, BID Days 1 to 28; CX-8998 N = 86, Olanzapine N = 47
Description: The primary efficacy endpoint was the mean change from baseline in the Positive and Negative Syndrome Scale (PANSS) total score at Week 4; secondary efficacy endpoints included responder rates on the PANSS total score at Week 4 and the change from baseline in the Clinical Global Impressions—Severity of Illness Scale at Week 4. Safety was monitored by adverse events, laboratory evaluations, ECGs, Holter monitoring, vital signs, the Simpson-Angus Scale, the Barnes Akathisia Rating Scale, the Abnormal Involuntary Movement Scale, and the Columbia Suicide-Severity Rating scale (C-SSRS).

[16] = depolarized, read-out: Depolarized FLIPR potency
[17] = hyperpolarized, read-out: Hyperpolarized FLIPR potency

In the case of CC(CO)c1ccc(CC(=O)N[C@H](C)c2ccc(OCC(F)(F)F)cn2)cc1 (stereo partly shown) [M04], the AUC ([1]; female, 10 mg/kg) is reported as 2.19 µM·h, the AUC ([1]; female, 30 mg/kg) is reported as 3.75 µM·h and the AUC ([1]; female, 100 mg/kg/day) is reported as 8.1 µM·h. The AUC ([1]; male, 10 mg/kg) was 3.37 µM·h, the AUC ([1]; male, 30 mg/kg) was 2.25 µM·h and the AUC ([1]; male, 100 mg/kg/day) was 33.9 µM·h. For the same compound, the AUC ([2]; female, 5 mg/kg) was 3.19 µM·h, the AUC ([2]; female, 15 mg/kg) was 8.04 µM·h and the AUC ([2]; female, 100 mg/kg) was 61.9 µM·h. The AUC ([2]; female, 300 mg/kg) was 55.3 µM·h, the AUC ([2]; male, 5 mg/kg) was 1.32 µM·h and the AUC ([2]; male, 15 mg/kg) was 2.47 µM·h. For the same compound, the AUC ([2]; male, 100 mg/kg) was 15.5 µM·h, the AUC ([2]; male, 300 mg/kg) was 19.4 µM·h and the “Fold less potent than CX-8998” value [3] was “approximately 5 fold”. It also gave an IC50 [3, 16] of 19 nM, an IC50 [3, 17] of 1810 nM and a State dependence [3] of 95 fold. The fraction unbound [4] was 0.13, the “Plasma concentration, mean” value ([5]; Visit 2 (Day 8), 4 mg BID) was 4.5 nM and the “Plasma concentration, mean” value ([5]; Visit 3 (Day 15), 8 mg BID) was 4.9 nM. For the same compound, the “Plasma concentration, mean” value ([5]; Visit 4 (Day 28), 10 mg BID) was 5.6 nM, the concentration at 4 h ([5]; Visit 4 (Day 28), 10 mg BID) was 6.4 nM and the Percent of inhibition [6] was 60%.

In the case of CCC1(C)CC(=O)NC1=O (stereo not shown) [Ethosuximide, ethosuximide], the “Number and frequency of seizures” value [7] is reported as “only partially suppressed”.

In the case of CC1(C)C[C@@H](CN2CCC(F)(CNC(=O)c3cc(Cl)cc(Cl)c3)CC2)CCO1 [TTA-P2], the State dependency [8] is listed as 1 fold, the IC50 [8] is listed as 84 to 196 nM and the AUClast [9] is listed as 1.94 µM·h. For the same compound, the Cmax [9] was 480 nM, the Tmax [9] was 0.7 h and the t½ [9] was 1.8 h. The Brain/plasma ratio [10] was 6.0, the Harmaline-induced tremor [11] was “normalized both physiologic tremor prior to harmaline administration and harmaline-induced tremor in a dose-dependent fashion” and the Plasma-free fraction [12] was 5.7%.

For CC(C(=O)O)c1ccc(CC(=O)N[C@H](C)c2ccc(OCC(F)(F)F)cn2)cc1 (stereo partly shown) [M03], the Tmax ([13]; female) was 8 h, the Tmax ([13]; male) was 24 h and the AUC ([1]; female, 10 mg/kg) was 8.4 µM·h. The AUC ([1]; female, 30 mg/kg) was 15.4 µM·h, the AUC ([1]; female, 100 mg/kg/day) was 17.2 µM·h and the AUC ([1]; male, 10 mg/kg) was 10.5 µM·h. For the same compound, the AUC ([1]; male, 30 mg/kg) was 12.3 µM·h, the AUC ([1]; male, 100 mg/kg/day) was 79.6 µM·h and the AUC ([2]; female, 5 mg/kg) was 9.85 µM·h. For the same compound, the AUC ([2]; female, 15 mg/kg) was 19.7 µM·h, the AUC ([2]; female, 100 mg/kg) was 159 µM·h and the AUC ([2]; female, 300 mg/kg) was 169 µM·h. It also gave an AUC ([2]; male, 5 mg/kg) of 23.9 µM·h, an AUC ([2]; male, 15 mg/kg) of 34.9 µM·h and an AUC ([2]; male, 100 mg/kg) of 181 µM·h. The AUC ([2]; male, 300 mg/kg) was 213 µM·h, the “Potency and state dependence compared with CX-8998” value [3] was “significantly less potent and state dependent” and the IC50 [3, 16] was 948 nM. It also gave an IC50 [3, 17] of 3320 nM, a State dependence [3] of 3.5 fold and a fraction unbound [4] of 0.21. The Kp at 2 h ([14]; brain and plasma, oral, read-out: Brain-to-plasma ratio) was 0.01, the Kp at 2 h ([14]; brain, po, read-out: Brain: Plasma Ratio) was 0.01 and the “Plasma concentration, mean” value ([5]; Visit 2 (Day 8), 4 mg BID) was 11 nM. The “Plasma concentration, mean” value ([5]; Visit 3 (Day 15), 8 mg BID) was 16 nM, the “Plasma concentration, mean” value ([5]; Visit 4 (Day 28), 10 mg BID) was 20 nM and the concentration at 4 h ([5]; Visit 4 (Day 28), 10 mg BID) was 22 nM. It also gave a Percent of inhibition [6] of 71%.

For C[C@@H](NC(=O)Cc1ccc(C2CC2)cc1)c1ccc(OCC(F)(F)F)cn1 [TTA-A2], the State dependency [8] is given as no less than 40 fold, the IC50 [8] is given as 89 to 98 nM and the AUClast [9] is given as 30 µM·h. The t½ [9] was 1.5 h and the Plasma-free fraction [12] was 0.6%.

For Cc1cc2c(s1)Nc1ccccc1N=C2N1CCN(C)CC1 [olanzapine, reference compound], the Anxiety [15] was 0 (0.0), the “At least 1 adverse event” value [15] was 23 (48.9) and the Chronic pharyngitis [15] was 0 (0.0). For the same compound, the Dizziness [15] was 1 (2.1), the Headache [15] was 3 (6.4) and the Rhinopharyngitis [15] was 0 (0.0). The Schizophrenia [15] was 1 (2.1), the Sinus tachycardia [15] was 3 (6.4) and the Somnolence [15] was 3 (6.4).
